Results as given in BindingDB's records for doi:10.1016/j.chembiol.2008.02.015 (University of Dundee, 2008).
Numbered stars: 1 amine (or outer) side, 2 acyl side, 3 side chain; on linkers, the order of the positions; unused ones are H or OH. Square brackets hold non-standard residues; d marks the D form. Side chains are listed from the residue outwards. Peptide text beside a SMILES is read from it. NMeF = CN[C@@H](Cc1ccccc1)C(=O)O; CO = O=C([*:1])[*:2]

Key:
[1] = biological target: Chitotriosidase-1 (Homo sapiens, UniProt Q13231); assay: Inhibition Assay; conditions: pH 5.5
[2] = biological target: Endochitinase B1 (Aspergillus fumigatus, UniProt Q873X9); assay: Inhibition Assay; conditions: pH 5.5

Sequence of Chitotriosidase-1 (Q13231 whole entry): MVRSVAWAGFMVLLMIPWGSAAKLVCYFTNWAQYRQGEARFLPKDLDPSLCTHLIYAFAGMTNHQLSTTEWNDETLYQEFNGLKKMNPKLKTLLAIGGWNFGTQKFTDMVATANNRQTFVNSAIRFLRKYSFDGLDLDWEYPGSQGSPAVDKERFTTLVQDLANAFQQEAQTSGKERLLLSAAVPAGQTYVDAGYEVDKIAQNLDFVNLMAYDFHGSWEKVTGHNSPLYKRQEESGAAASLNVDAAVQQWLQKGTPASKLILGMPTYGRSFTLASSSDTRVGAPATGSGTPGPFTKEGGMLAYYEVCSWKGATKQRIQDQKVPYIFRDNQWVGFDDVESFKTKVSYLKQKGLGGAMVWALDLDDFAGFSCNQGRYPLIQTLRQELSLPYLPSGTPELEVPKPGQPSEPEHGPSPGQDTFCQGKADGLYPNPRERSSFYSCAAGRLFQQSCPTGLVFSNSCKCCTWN

Structure (SMILES)	IC50 [1] [µM]	IC50 [2] [µM]
CNC(=O)NC(=N)NCCC[C@H](NC(C)=O)C(=O)N(C)[C@@H](Cc1ccccc1)C(=O)O	190	
CNC(=O)NC(=N)NCCC[C@@H]1NC(=O)[C@@H](C)NC(=O)C[C@@H](C(=O)O)NC(=O)C[C@@H](C(=O)O)NC(=O)[C@H](Cc2ccccc2)N(C)C1=O [(2R,5S,8S,11S,15S)-8-benzyl-2,7-dimethyl-5-[3-({[(methylcarbamoyl)amino]methanimidoyl}amino)propyl]-3,6,9,13,17-pentaoxo-1,4,7,10,14-pentaazacycloheptadecane-11,15-dicarboxylic acid]		0.027
[H]/N=C(\NC)NC(=O)NC [Argifin-Derived Fragments, 1]	5800	500
CNC(=O)NC(N)=NCCC[C@H](NC(C)=O)C(=O)N(C)[C@@H](Cc1ccccc1)C(=O)N[C@@H](CC(=O)O)C(=O)O [Tripeptide] (Ac-Arg([CO-NHMe])-[NMeF]-Asp-OH)	68	5.1

Second part, led by results:

IC50 [1] [µM]	Structure (SMILES)	IC50 [2] [µM]
1000	CNC(=O)NC(N)=NCCC[C@H](NC(C)=O)C(=O)NC [Monopeptide]	
28	CNC(=O)NC(N)=NCCC[C@H](NC(=O)[C@@H](C)NC(C)=O)C(=O)N(C)[C@@H](Cc1ccccc1)C(=O)N[C@@H](CC(=O)O)C(=O)O [Tetrapeptide]	
